Target: thromboxane A2 receptor (TBXA2R) (Gα12) (Homo sapiens, UniProt P21731)
Experiment: BRET² G protein dissociation assay, TBXA2R with Gα12
Assay type: cell-based
Settings: for Mean (plotted), G protein dissociation BRET² signal: TBXA2R-G12, Fig. 5c source data
Experimental: G protein dissociation assays were performed according to the original protocols of the TRUPATH BRET² assay[47],[87] but with subtle modifications as previously described[61],[88],[89]. All reagents and cells were obtained from Thermo Fisher Scientific unless indicated otherwise. The coding sequences for the G protein biosensors[47] (Gα12-Rluc8, Gα13-Rluc8, wt Gβ3, and Gγ9-GFP), the wt GPR55, the construct used for cryo-EM (with GFP bearing a G67A mutation to disrupt fluorescence properties[48] for BRET² assays), GPR55 binding pocket mutants (G152^4.56F, G152^4.56W, N171^ECL2Q, N171^ECL2A, T176^5.33A, R253^6.62A), and the wt TBXA2R were codon-optimized for Homo sapiens, gene-synthesized, and sub-cloned into pcDNA^TM3.1(+) between NheI and HindIII restriction sites by GeneArt (Thermo Fisher Scientific). […] Freshly grown cells were washed with Dulbecco’s Balanced Salt Solution (DPBS, cat. #14200075) and detached using trypsin-ethylenediaminetetraacetic acid (trypsin-EDTA) (cat. #25300-062). Then, the cells were reconstituted to 500,000 cells per mL with fresh medium, and 1,000,000 cells were seeded into each well of a 6-well plate. After 3 h incubation at 37 °C and 5% CO2, adherent cells were transfected with 600 ng DNA (1:1:1:1 ratio of plasmid DNA for GPR55, wt Gβ3, Gγ9-GFP, and Gα12-Rluc8 or Gα13-Rluc8). Plasmid DNA was mixed with 1.5 µL Lipofectamine^TM 2000 (cat. #11668027) in Opti-MEM^TM medium (cat. #31985062) and incubated for 20 min. Then, the mixture was added to each well of the 6-well plate following 24 h incubation at 37 °C and 5% CO2. Transfected cells were washed with DPBS, detached using EDTA (Versene, cat. #15040066), and reconstituted into fresh medium at 500,000 cells mL^−1. From this suspension, 50,000 cells were seeded into each well of a white-bottom 96-well plate (Nunc^TM MicroWell^TM 96 wells, cat. #136101) following overnight incubation at 37 °C and 5% CO2. Then, the adherent cells were washed with assay medium [Hank’s balanced salt solution (HBSS, cat. #14065056) plus 20 mM HEPES pH 7.4 (cat. #15630056)] and finally reconstituted into 50 µL of the same medium. […] Methoxy e-Coelenterazine was used as luciferase substrate (Prolume Purple, NanoLight Technology, cat. #369), reconstituted at 1 mM in methanol and diluted to 37.5 µM with assay buffer (7.5 µM final assay concentration). The assay was started by the addition of 20 µL luciferase substrate to each well of the assay plate using a Multidrop^TM Combi reagent dispenser (Thermo Fisher Scientific), followed by 5 min incubation at room temperature. Then, 30 µL of agonist dilutions or DMSO control was added (final DMSO concentration 1.5%), followed by an additional 5 min incubation at room temperature. BRET² measurements were performed with a PHERAstar® FSX microplate reader (BMG LABTECH) using a BRET² filter (donor emission 370–450 nm, acceptor emission 500–530 nm) at the maximum fluorescence gain of 3600. BRET² ratios were calculated by dividing GFP emission signals from Rluc8 emission counts. Buffer-DMSO controls were subtracted from each data point to calculate ΔBRET² ratios. The half-maximal effective concentration (potency, EC50) and maximal effect (efficacy, Emax) were determined by sigmoidal dose-response curve fit with variable slope.

Chain of thromboxane A2 receptor (TBXA2R) (Gα12) (P21731 whole entry, species assumed): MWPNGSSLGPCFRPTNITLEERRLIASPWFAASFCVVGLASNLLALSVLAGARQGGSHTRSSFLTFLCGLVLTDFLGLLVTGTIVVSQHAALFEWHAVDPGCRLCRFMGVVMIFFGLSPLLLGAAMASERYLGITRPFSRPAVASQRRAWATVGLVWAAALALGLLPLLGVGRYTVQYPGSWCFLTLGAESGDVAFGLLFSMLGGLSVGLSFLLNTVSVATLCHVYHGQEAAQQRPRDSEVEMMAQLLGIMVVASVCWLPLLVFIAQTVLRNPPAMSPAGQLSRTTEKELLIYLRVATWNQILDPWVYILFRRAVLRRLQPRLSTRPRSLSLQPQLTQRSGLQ
Chain of thromboxane A2 receptor (TBXA2R) (Gα12) (Q03113 whole entry partner, species assumed): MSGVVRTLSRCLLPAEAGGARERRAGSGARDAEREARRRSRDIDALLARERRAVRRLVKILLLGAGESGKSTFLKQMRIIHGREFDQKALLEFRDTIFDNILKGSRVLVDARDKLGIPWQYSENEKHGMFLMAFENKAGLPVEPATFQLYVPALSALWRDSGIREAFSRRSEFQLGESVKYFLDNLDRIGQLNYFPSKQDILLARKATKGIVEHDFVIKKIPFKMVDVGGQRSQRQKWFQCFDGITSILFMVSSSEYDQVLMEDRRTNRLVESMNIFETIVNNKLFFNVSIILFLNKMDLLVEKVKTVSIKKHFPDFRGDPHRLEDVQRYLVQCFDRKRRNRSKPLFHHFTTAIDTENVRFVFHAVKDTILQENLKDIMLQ
Chain of thromboxane A2 receptor (TBXA2R) (Gα12) (P16520 whole entry partner, species assumed): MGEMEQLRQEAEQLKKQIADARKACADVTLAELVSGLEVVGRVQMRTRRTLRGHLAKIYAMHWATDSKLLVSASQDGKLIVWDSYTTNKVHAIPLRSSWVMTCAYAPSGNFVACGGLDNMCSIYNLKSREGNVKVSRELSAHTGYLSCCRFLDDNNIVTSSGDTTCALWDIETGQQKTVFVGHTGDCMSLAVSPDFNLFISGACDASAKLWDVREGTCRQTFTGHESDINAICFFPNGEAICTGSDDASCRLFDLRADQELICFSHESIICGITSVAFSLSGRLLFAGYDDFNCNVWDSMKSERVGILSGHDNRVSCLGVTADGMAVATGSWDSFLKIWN
Chain of thromboxane A2 receptor (TBXA2R) (Gα12) (O14610 1-66 partner limits assumed, species assumed): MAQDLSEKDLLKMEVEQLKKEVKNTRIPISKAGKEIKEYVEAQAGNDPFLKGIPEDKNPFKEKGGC

Row | SMILES | Mean (plotted), G protein dissociation BRET² signal (concentration 300 pM) | Mean (plotted), G protein dissociation BRET² signal (concentration 1e-9 M) | Mean (plotted), G protein dissociation BRET² signal (concentration 3e-9 M) | Mean (plotted), G protein dissociation BRET² signal (concentration 1e-8 M) | Mean (plotted), G protein dissociation BRET² signal (concentration 3e-8 M) | Mean (plotted), G protein dissociation BRET² signal (concentration 1e-7 M) | Mean (plotted), G protein dissociation BRET² signal (concentration 3e-7 M) | Mean (plotted), G protein dissociation BRET² signal (concentration 1e-6 M) | Mean (plotted), G protein dissociation BRET² signal (concentration 3e-6 M) | Mean (plotted), G protein dissociation BRET² signal (concentration 1e-5 M) | Mean (plotted), G protein dissociation BRET² signal (concentration 3e-5 M) | Efficacy ± SEM (%) (TBXA2, Gα12) | pEC50 ± SEM (TBXA2, Gα12) | EC50 (TBXA2R via Gα12, read-out: potency (EC50)) | Mean (plotted), G protein dissociation BRET² signal (concentration 10 pM) | Mean (plotted), G protein dissociation BRET² signal (concentration 30 pM) | Mean (plotted), G protein dissociation BRET² signal (concentration 100 pM)
1 | Cc1cccc(N2CCN(C(=O)c3cc(S(=O)(=O)N(C)C)ccc3N3CCCC3)CC2)c1C [ML184, 3-[[4-(2,3-dimethylphenyl)-1-piperazinyl]carbonyl]-N,N-dimethyl-4-(1-pyrrolidinyl)benzenesulfonamide] | 0.004412 | 0.004455 | 0.002143 | 0.001783 | 0.001091 | -3.229e-5 | 0.0009853 | 0.004147 | 0.0053 | 0.009359 | 0.007653 | – | – | – | – | – | –
2 | CCCCC[C@H](O)/C=C/[C@@H]1[C@@H](C/C=C\CCCC(=O)O)[C@H]2CO[C@@H]1C2 [U-46619] | -0.007 | -0.0104 | -0.01228 | -0.02818 | -0.04678 | -0.06592 | -0.07783 | -0.08315 | – | – | – | 100 ± 8% | 7.62 ± 0.15 | 24 nM | 0.003425 | 0.003325 | -0.00015
